According to PMC3880124 (MedChemComm, 2013):
Where two headings read alike, the source gives them in different places.

Experiments:
[1] = molecular target: T1, SK1 (Homo sapiens, UniProt Q9NYA1); experiment: Inhibition of SK1 activity; conditions: compound at 50 μM; Sph 3 μM
[2] = molecular target: T1, SK1; experiment: SK1 expression in PASMC; conditions: 10 μM, 24 h, western blot
[3] = test system: PASMC; conditions: 24 h
[4] = molecular target: T2, SK2 (Homo sapiens, UniProt Q9NRA0); experiment: Test of compounds as SK2 substrates; assay type: biochemical; conditions: compound at 50 μM
T2 sequence (Q9NRA0 1-654): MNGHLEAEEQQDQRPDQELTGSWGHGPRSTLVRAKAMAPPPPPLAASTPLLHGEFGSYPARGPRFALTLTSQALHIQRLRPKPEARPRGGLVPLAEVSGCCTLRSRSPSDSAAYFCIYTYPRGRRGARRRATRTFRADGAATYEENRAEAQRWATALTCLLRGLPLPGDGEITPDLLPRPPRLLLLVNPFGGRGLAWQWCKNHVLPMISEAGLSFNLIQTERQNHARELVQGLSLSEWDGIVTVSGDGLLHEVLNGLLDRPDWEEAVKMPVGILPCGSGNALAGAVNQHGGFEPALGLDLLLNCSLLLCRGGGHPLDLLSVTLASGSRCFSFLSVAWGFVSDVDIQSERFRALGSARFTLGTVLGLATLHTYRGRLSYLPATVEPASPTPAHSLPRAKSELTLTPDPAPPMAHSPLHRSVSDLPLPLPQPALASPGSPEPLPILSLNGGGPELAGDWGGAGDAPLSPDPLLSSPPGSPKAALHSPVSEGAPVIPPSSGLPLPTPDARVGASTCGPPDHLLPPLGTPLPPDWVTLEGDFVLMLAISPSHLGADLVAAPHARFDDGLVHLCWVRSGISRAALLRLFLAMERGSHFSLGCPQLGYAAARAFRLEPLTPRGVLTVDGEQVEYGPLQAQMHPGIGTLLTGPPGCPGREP

[5] = molecular target: T1, SK1; experiment: Test of compounds as SK1 substrates; assay type: biochemical; conditions: compound at 50 μM
[6] = molecular target: T2, SK2; experiment: Inhibition of SK2 activity; assay type: biochemical; conditions: compound at 50 μM; Sph 10 μM

T1 sequence (Q9NYA1 whole entry): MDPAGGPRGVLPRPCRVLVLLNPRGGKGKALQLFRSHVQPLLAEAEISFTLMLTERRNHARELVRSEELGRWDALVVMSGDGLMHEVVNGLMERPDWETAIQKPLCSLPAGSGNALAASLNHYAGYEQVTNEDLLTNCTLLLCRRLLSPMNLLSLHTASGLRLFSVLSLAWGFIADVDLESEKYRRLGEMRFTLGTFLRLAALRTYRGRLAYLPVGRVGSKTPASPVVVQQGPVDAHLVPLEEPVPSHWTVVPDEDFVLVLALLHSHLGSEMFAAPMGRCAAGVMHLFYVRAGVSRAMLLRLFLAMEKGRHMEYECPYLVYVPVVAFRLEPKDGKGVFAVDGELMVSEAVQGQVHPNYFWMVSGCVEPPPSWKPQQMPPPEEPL

Compound: CCCCCCCCCCCCCCC[C@@H](O)[C@H](C)N [55-21, (2S,3R)-2-amino-3-octadecanol]
- SK1 inhibition in words [1]: more effective SK1 inhibitors
- effect on SK1 expression [2]: reduced the expression of SK1
- effect on DNA synthesis ([3]; 100 nM and 1 μM): significantly inhibited DNA synthesis

Compound: CCCCCCCCCCCCC/C=C\[C@@H](O)[C@@H](N)CO [67-302]
- substrate of SK2 [4]: efficiently phosphorylated by SK2
- substrate of SK1 [5]: weak substrates of SK1

Compound: CCCCCCCCCCCCC/C=C/[C@@H](O)[C@H](CO)NC(=S)Nc1ccc(C(F)(F)F)cc1 [67-330]
- SK1 inhibition in words [1]: weak inhibitor of both SK isoforms
- SK2 inhibition in words [6]: weak inhibitor of both SK isoforms

Compound: CCCCCCCCCCCCCC[C@H]1OC[C@H](NC(=S)Nc2c(F)c(F)c(F)c(F)c2F)[C@@H]1O [67-341]
- substrate of SK1 [5]: weak substrates of SK1

Compound: CCCCCCCCCCCCCCOC[C@@H](O)[C@H](C)N(C)C [77-7]
- SK1 inhibition in words [1]: effective SK1 inhibitor

Compound: CCCCCCCCCCCCCCC[C@@H](O)[C@H](C)[N+](C)(C)C.Cc1ccc(S(=O)(=O)[O-])cc1 [77-13]
- SK1 inhibition in words [1]: nonselective SK inhibitor
- substrate of SK1 [5]: weak substrates of SK1
- SK2 inhibition in words [6]: nonselective SK inhibitor

Compound: CCCCCCCCCCCCCCC[C@@H](O)[C@H](CO)NC(=S)Nc1cccc(F)c1 [F-01]
- substrate of SK2 [4]: very weak substrates of SK2
- substrate of SK1 [5]: weak substrates of SK1
- SK2 inhibition in words [6]: less effective

Compound: CCCCCCCCCCCCCCC[C@@H](O)[C@H](CO)NC(=S)Nc1cccc(C(F)(F)F)c1 [F-02]
- substrate of SK2 [4]: very weak substrates of SK2
- effect on SK1 expression [2]: without effect on SK1 expression

Compound: Cc1cc(CS(=O)(=O)c2ccccc2)cc(OCc2ccc(CN3CCC[C@@H]3CO)cc2)c1 [PF-543]
- effect on DNA synthesis ([3]; 10 nM and 100 nM): ineffective at reducing DNA synthesis

Compound: CCCCCCCCCCCCc1ccc(C(=O)N2CCC[C@H]2C(=N)N)cc1.Cl [VPC96091, reference compound]
- SK2 inhibition in words [6]: abolished SK1 and SK2 activity
- effect on DNA synthesis ([3]; 300 nM): ineffective at reducing DNA synthesis
